Common to all, as to format: cell-based, human
For experiment [1], the system named is shControl (ShC) A549 cells. The experiment in a line: Cell viability / Crystal Violet Cytotoxicity Assay, dose-response IC50, shControl A549 cells. As to the method:
(§1) The majority of experiments presented in this study was performed with the human KRAS G12S/SKT11 Q37* co-mutated NSCLC A549 cells (American Type Tissue Collection, ATCC). All cells were maintained in Dulbecco's-modified minimum essential medium and Ham's F-12 medium (DMEM/F12 Glutamax; Life Technologies) supplemented with 10% fetal bovine serum (Dutcher), 2% Sodium Pyruvate, and 1% Penicillin-Streptomycin (Life technologies). To establish SQSTM1 knockdown stable cell lines, cells were transduced with small hairpin RNAs (shRNAs) lentiviruses that target the mRNA coding sequence of SQSTM1. Two distinct SQSTM1 shRNAs (Sigma, human, NM_003900, SQSTM1 #1, TRCN0000007237, and SQSTM1 #2, TRCN0000007236) were used to minimize sequence-dependent off-target effects. As controls, autophagy was inhibited at the initiation step by ATG5 (Sigma, human, NM_004849, ATG5 #1, TRCN0000151963) or ATG7 shRNA (Sigma, human, NM_006395, TRCN0000007584). For this purpose, the targeted and control (Sigma; SHC002V) shRNA lentivirus were transduced into the cells. ShRNA-mediated protein downregulation was controlled by qRT-PCR or immunoblotting with specific primers and antibodies (see for shRNA, primer, and antibody details the supplemental Tables 1 to 3).
(§2) For all experiments, cells were seeded in 6-well plates or 60 mm culture dishes and incubated until they reached 60-70% confluency.

Experiment [2] relates to ShSQSTM1 A549 cells. The experiment can be described thus: Cell viability / Crystal Violet Cytotoxicity Assay, dose-response IC50, shSQSTM1 A549 cells. As to the method:
as §1, §2

The test system of experiment [3] is HLA-B and PD-L1 expression in ShC A549 cells. The experiment in a line: IFN/HLA-B/PD-L1 pathway expression (qRT-PCR, western blot, flow cytometry) in shControl A549 cells. As to conditions: for Induction of HLA-B and PD-L1 expression: ShC (SQSTM1 positive) A549 cells, 5-Aza 500 nM, 5 and 6 days, IFNG 50 ng/ml. Background: Quantitative PCR measures a nucleic acid by following its amplification.

In experiment [4] the test system is HLA-B and PD-L1 expression in ShSQSTM1 A549 cells. The experiment can be described thus: IFN/HLA-B/PD-L1 pathway expression (qRT-PCR, western blot, flow cytometry) in SQSTM1-depleted A549 cells. As to conditions: docetaxel 5 nM; for TBK1/STAT1 phosphorylation and expression of IFN, HLA-B and PD-L1 in SQSTM1-depleted cells: Cisplatin 10 μM, IFNG 50 ng/ml. The procedure:
as §2
Quantitative real-time polymerase chain reaction analysis was performed on equal amounts of cDNA using the SYBR Green master mix and an Applied StepOne Plus PCR system (Life technologies). Relative gene expression changes were quantified using the 2 [−ΔΔCt] method and normalized to the housekeeping gene RPLP0 compared to the untreated cell samples.
Cell-surface expression of PD-L1 was examined using flow cytometry. […] Flow cytometry analysis was performed on a Cytoflex flow cytometer (10,000 cells, Cytoflex software). The MFI (PD-L1-isotype) is calculated as the MFI (PD-L1) is subtracted by the MFI (isotype control).

For experiment [5], the system named is 53BP1-positive foci in A549 cells. The experiment in a line: Global DNA damage measured by 53BP1 focus formation (immunofluorescence). As to conditions: Cisplatin 10 μM, FIG. 18. As to the method: At the indicated time, global DNA damage (A) was measured by 53BP1 focus formation (right immunofluorescence staining, 53BP1 red, Dapi, blue. Left, cell percentage with more than five spots).

Setting [6] is: Shc A549, dose-response curves (Cell Treatments).
Where [7] appears, read: ShSQSTM1 A549, dose-response curves (Cell Treatments).
The mark [8] stands for this setting: Homo sapiens, Shc A549, dose-response curves (Cell Treatments).
The mark [9] stands for this setting: Homo sapiens, ShSQSTM1 A549, dose-response curves (Cell Treatments).

In general, IC50 refers to the concentration needed to halve the response being measured. Higher therefore signals weaker potency. On to `O=C1[O][Pt]2([NH][C@@H]3CCCC[C@H]3[NH]2)[O]C1=O` [Oxaliplatin], for which the IC50 turned out to be 2.61 µM in experiment [1] (setting [6]) and 4.51 µM in experiment [2] (setting [7]). In addition, in experiment [3], the “Induction of HLA-B and PD-L1 expression” value is on record as “recapitulated the late induction of this pathway”.
On to `N.N.[Cl][Pt][Cl]` [Cisplatin], for which the IC50 in experiment [1] (setting [6]) amounted to 24 µM; in experiment [1] (control ShC A549 cells, Cisplatin 5 days, FIG. 14), 24 ± 1.4 µM; in experiment [2] (setting [7]), 47.7 µM; in experiment [2] (ShSQSTM1 A549 cells, Cisplatin 5 days, FIG. 14), 51 ± 5.3 µM. In addition, the “Induction of HLA-B and PD-L1 expression” value in experiment [3] was “most effective drug for inducing HLA-B and PD-L1”. The “TBK1/STAT1 phosphorylation and expression of IFN, HLA-B and PD-L1 in SQSTM1-depleted cells” value in experiment [4] is recorded as “did not up-regulate”. In addition, the “Start of formation of 53BP1-positive foci” value in experiment [5] was 6 h. Besides, in experiment [5], the “Time of peak value of 53BP1-positive foci” value came to 16 h.
With `O=C(NCCCNc1nc(Nc2cccc(CN3CCOCC3)c2)ncc1C1CC1)C1CCC1` [MRT 67307], in experiment [3] (co-treatment with Cisplatin 10 μM, MRT 67307 10 μM, Ruxolitinib 5 μM, FIG. 26), the “Block of Cisplatin ability to induce IFN/HLA B/PD-L1” value was “sufficient to block”.
Turning to `Nc1ncn([C@@H]2O[C@H](CO)[C@@H](O)[C@H]2O)c(=O)n1` [5-Azacytidine], the “Induction of HLA-B and PD-L1 expression” value in experiment [3] is “recapitulated the late expression of HLA-B and PD-L1”.
For `CC(=O)O[C@@]12CO[C@@H]1C[C@H](O)[C@@]1(C)C(=O)[C@H](O)C3=C(C)[C@@H](OC(=O)[C@H](O)[C@@H](NC(=O)OC(C)(C)C)c4ccccc4)C[C@@](O)([C@@H](OC(=O)c4ccccc4)[C@H]21)C3(C)C` [Docetaxel], the IC50 in experiment [1] (setting [8]) is 0.364 µM; in experiment [2] (setting [9]), 0.0213 µM. The “Growth arrest and DNMT1 downregulation” value in experiment [3] (Shc A549 cells, docetaxel 5 nM, qRT-PCR) is “did trigger growth arrest and DNMT1 downregulation”; in experiment [4] (qRT-PCR) it was “did trigger growth arrest and DNMT1 downregulation”. For the same molecule, the “TBK1/STAT1 phosphorylation and expression of IFN, HLA-B and PD-L1 in SQSTM1-depleted cells” value in experiment [4] is on record as “significantly rescued”.
With `COc1cccc2c1C(=O)c1c(O)c3c(c(O)c1C2=O)C[C@@](O)(C(=O)CO)C[C@@H]3O[C@H]1C[C@H](N)[C@H](O)[C@H](C)O1` [Doxorubicin], the IC50 in experiment [1] (setting [8]) is 0.364 µM; in experiment [2] (setting [9]) it was 0.486 µM. Also, in experiment [3], the “Induction of HLA-B and PD-L1 expression” value is “recapitulated the late induction of this pathway”.
With `CC(=O)O[C@H]1C(=O)[C@@]2(C)[C@H]([C@H](OC(=O)c3ccccc3)[C@]3(O)C[C@H](OC(=O)[C@H](O)[C@@H](NC(=O)c4ccccc4)c4ccccc4)C(C)=C1C3(C)C)[C@]1(OC(C)=O)CO[C@@H]1C[C@@H]2O` [Paclitaxel], the IC50 is 0.0014 µM in experiment [1] (setting [8]) and 0.0037 µM in experiment [2] (setting [9]).
`CO/C1=C\C(C)=C\[C@@H](C)[C@@H](O)[C@@H](C)C/C(C)=C/C=C/[C@H](OC)[C@@H]([C@@H](C)[C@@H](O)[C@H](C)[C@@]2(O)C[C@@H](O)[C@H](C)[C@@H](C(C)C)O2)OC1=O` [bafA1]: the “HLA-B and PD-L1 expression on pharmacological autophagy inhibition” value in experiment [3] (A549 cells, data not shown) was “enhanced expression of HLA-B and PD-L1”.

B1: IFNG: IFNγ (C-60724 Promokine), positive control (protein, UniProt P01579 24-161, looked up)
Interferon gamma: QDPYVKEAENLKKYFNAGHSDVADNGTLFLGILKNWKEESDRKIMQSQIVSFYFKLFKNFKDDQSIQKSVETIKEDMNVKFFNSNKKKRDDFEKLTNYSVTDLNVQRKAIHELIQVMAELSPAAKTGKRKRSQMLFRG
B1: in experiment [3], the “Induction of HLA-B and PD-L1 expression” value was “induced STAT1 phosphorylation, HLA-B, and PD-L1 expression”. The “TBK1/STAT1 phosphorylation and expression of IFN, HLA-B and PD-L1 in SQSTM1-depleted cells” value in experiment [4] is “induced STAT1 phosphorylation, HLA-B, and PD-L1 expression”.
